Experimental data published in patent US6660742B2, “Compositions and methods of the use thereof achiral analogues of CC-1065 and the duocarmycins” (priority 2000, dated 2003).
Where two headings read alike, the source gives them in different places.

Tests used:
plasmid pBR322 DNA = assay: Taq polymerase stop assay; type: biochemical
[1] = tested on: K562 human chronic myeloid leukemia cells; assay: MTT cytotoxicity on K562 cells; type: cell-based
[2] = tested on: mouse L1210 leukemia cells; conditions: cited from earlier work
[3] = tested on: human colon adenocarcinoma cell line, LS 174T; assay: SRB cytotoxicity on LS174T cells; type: cell-based
Procedure: Cells were seeded in 96-well microtiter plates at densities of 1000 cells/well. The optimal seeding density was determined to ensure exponential growth in control wells throughout the experimental period and to obtain a linear relationship between absorbance at 492 nm and cell number when analyzed by the sulforhodamine B (SRB) assay (43). 24 hours after seeding the cells were incubated for 1 hour or continuously for 3 days with the drugs (concentration range 0.01 to 500 μM). The cells were washed once and then incubated in drug free medium for 6 days. At the end of the incubation cell growth was determined by the SRB assay, which quantifies viable cells by measuring their total cellular protein content. […] Similar studies were conducted against the growth of PC3 (human prostate cancer cells) and MCF-7 (human breast cancer cells).

P815 mastocytoma cells = assay: MTT cytotoxicity on P815 cells; type: cell-based, murine; conditions: 72 hr incubation
Procedure: (§1) The P815 and L1210 cell lines were obtained from American Type Tissue Culture Collection (ATCC). The cell lines were grown in Delbecco's Modified Eagle Medium (DMEM, Atlanta Biologicals) supplemented with 10% fetal bovine serum, Hepes Buffer (2 mM, Mediatech Cellgro, 25-060-Cl), L-Glutamine (2 mM, Mediatech Cellgro), and penicillin/streptomycin (50,000 units penicillin, 50,000 […], Atlanta Biologicals). Cells were maintained at 37° C. in a 5% humidified CO2 atmosphere. Cultured cells were counted using a hemocytometer and resuspended in fresh DMEM at a concentration of 8×10^5 cells/mL. This cell suspension (100 μL) was added to 96 well flat -bottom cell culture plates. At this concentration, 80,000 cells were seeded in each well. Drug solutions (dissolved in DMSO and diluted in DMEM) were added to each well (5 μL/well) resulting in final concentrations ranging from 1×10^−4 to 1×10^−12 M. Quadruplicate wells were prepared for each drug concentration. The plates were incubated for 72 hr at 37° C. in a 5% CO2 atmosphere. MTT (3-(4,5-dimethylthiazol-2-yl)-2,5-diphenyl tetrazolium bromide) was dissolved in PBS (5 mg/ml). After the indicated cell incubation period, 10 μL of this stock MTT solution was added to each well and the plates were further incubated for 4 h at 37° C. in a 5% CO2 atmosphere. […] The contents of the well were mixed thoroughly by pipetting the cell suspension up and down and the plates were allowed to sit at room temperature for 15 min in order to allow for full development of the purple color. The plates were read on a Dynatech Plate Reader, utilizing Dynex Revelation 3.2 software, with a test wavelenth of 570 nm and a reference wavelength of 630 nm.

L1210 leukemia cells = assay: MTT cytotoxicity on L1210 cells; type: cell-based, murine; conditions: 72 hr incubation
Procedure: as §1

supercoil pBR322 DNA = assay: pBR322 strand nicking assay; type: biochemical
From the text: When a compound is covalently bound to a purine-N3 in the minor groove of DNA, the adduct is thermally unstable. It is readily hydrolyzed to produce a DNA strand (2). Consequently, the formation of adenine-N3 (or guanine-N3) alkylation adducts can be detected by thermal conversion of supercoil pBR322 DNA (Form I) to nicked open […] DNA (Form II) as a result of the formation of single strand breaks. These two different forms of pBR322 DNA can then be separated by agarose gel electrophoresis, and the relative amounts of each form can be determined by densitometry of methylene blue stained gels (39). The supercoil form of pBR322 DNA is more compact than the open circular form, and as a result, moves further down the gel towards the positive electrode.
Solutions of the drugs dissolved in N,N-dimethylacetamide (DMA) were made at 0.10 mM concentrations, and were always stored in the refrigerator.
Tris buffer solution at pH 7.4 at 25° C. and 0.010 M was made from Tris HCl (0.661 g), Tris base (0.097 g) diluted to a 100 mL volume with distilled water. Then EDTA-Na2—2H2O (0.186 g) and KCl (3.72 g) were added to the Tris HCl solution and diluted to 500 mL volume with distilled water. A TBE solution was prepared from Carolina Lot #4020602 Electrophoresis buffer 20 times TBE diluted to a volume of three liters with deionized water. The agarose gel was prepared from agarose low EEO (0.32 g) dissolved in TBE buffer (40 mL) and heated in a microwave oven until dissolved.
The pBR322 DNA (100 μg/100 μL) from Pharmacia Biotech was in a buffer (10 mM Tris-HCl pH 7.5, and 1 mM EDTA). The DNA was prepared from plasmid DNA isolated from E. coli HB101 by the alkaline lysate procedure and was purified by Sepharcryl S-100 chromatography followed by CsCl-ethidium bromide centrifugation.
The alkylation samples were prepared by adding DNA (10 μL), Tris-EDTA KCl buffer (18 μL), and compound (2 μL) at 100 μM concentration to Eppendorf tubes. The samples were incubated at 40° C. for 40 h. The samples were removed then centrifuged for one minute. 10% SDS (sodium dodecylsulfate) (2 μL), 50% glycerol (5 μL), and bromophenol blue (2 μL) were added to the samples. The contents of the tubes were mixed with a Vortex mixer then centrifuged to consolidate the samples. The agarose gel was covered with TBE-buffer in the chamber. The samples were loaded onto the agarose gel and run at 40 V for three hours, or when the band were about three/fourths of the way down the gel.
The gel was removed and stained with methylene blue (45 min). At this time, the stained gel was placed in a water chamber overnight. The intensities of each band i.e. Form I and II were determined using densitometry.

[4] = tested on: panel of 60 human cancer cell lines; assay: NCI in-vitro cytotoxicity screen, whole panel; type: cell-based; conditions: for range of activity: 48 hour exposure
[5] = tested on: human tumor cells in hollow fibers; assay: NCI hollow fiber assay, all cell lines; type: in vivo, mice
L1210 leukemia = conditions: carzelesin 400 μg/kg, adozelesin 100 μg/kg; cited from earlier work
[6] = Homo sapiens, K562, 1 h, read-out: IC50 1 hour exposure
[7] = 0.1 mM compound, 40° C. for 40 h

Compound: 4-(2-Bromoethyl)-3-[5-(5-benzofuran-2-carboxamido)indole-2-carboxamido]phenol [Compound 2]
- sequence selectivity (plasmid pBR322 DNA): stronger sequence selectivity than 27
- efficiency in alkylating DNA (plasmid pBR322 DNA; compared with chloro-compound 1): less efficient in alkylating DNA
- IC50 ([1]; K562 cells, continuous exposure (3 days), read-out: IC50 continuous exposure (3 days)): 1.6 ± 0.9 µM
- IC50 ([1]; read-out: IC50 1 hour exposure, K562 cells, 1 hour exposure): 23.8 ± 9.7 µM

Compound: Cc1c[nH]c2c(O)cc3c(c12)[C@H](CCl)CN3C(=O)c1cc2cc(NC(=O)Nc3ccc4[nH]c(C(=O)N5C[C@@H](CCl)c6c5cc(O)c5[nH]cc(C)c65)cc4c3)ccc2[nH]1 [Bizelesin]
- IC50 [2]: 1 pM
- potency relative to (+)-CC1065 [2]: 20-30 times

Compound: CCCC(=O)Nc1cc(C(=O)Nc2cc(C(=O)Nc3ccc(O)cc3CCCl)n(C)c2)n(C)c1 [Compound 6, N-(2-(2-Chloroethyl)-4-hydroxyphenyl)-1-methyl-4-(1-methyl-4-butanamidopyrrole-2-carboxamido)pyrrole-2-carboxamide]
- IC50 [1, 6]: > 30 µM

Compound: CCCC(=O)Nc1cc(C(=O)Nc2cc(C(=O)Nc3ccc(O)cc3CCBr)n(C)c2)n(C)c1 [Compound 7, N-(2-(2-Bromoethyl)-4-hydroxyphenyl)-1-methyl-4-(1-methyl-4-butanamidopyrrole-2-carboxamido)pyrrole-2-carboxamide]
- IC50 ([3]; Homo sapiens, 1 h, read-out: IC50 LS174T 1 hour exposure): 237 µM
- activity in words ([3]; one hour exposure): not active
- IC50 [1, 6]: > 100 µM
- IC50 ([1]; Homo sapiens, K562, 72 h, read-out: IC50 continuous exposure (3 days)): 3.64 ± 0.05 µM
- activity in words ([1]; K562, one hour exposure): not active

Compound: Cl.Cn1cc(NC(=O)c2cccn2C)cc1C(=O)NCCCCNC(=O)CCCC(=O)Nc1ccc2oc(C(=O)Nc3cc(O)ccc3CCCl)cc2c1 [Compound 17, N-[(N-(4-Aminobutyl)-N-methylpyrrole-4-(N-methylpyrrole-2-carboxamido)-2-carboxamido)]-N-[5-(4-(2-chloroethyl)phenol-3-yl)benzofuran-2-carboxamido)]glutarodiamide hydrochloride]
- IC50 (P815 mastocytoma cells): 61 µM
- IC50 (L1210 leukemia cells): 64 µM

Compound: Cl.Cn1cc(NC(=O)c2cccn2C)cc1C(=O)NCCCCNC(=O)CCCC(=O)Nc1ccc2oc(C(=O)Nc3cc(O)ccc3CCCl)cc2c1 [Compound 17]
- alkylation of the 5′-AAAAA sequence (plasmid pBR322 DNA): did not alkylate
- alkylation selectivity (sequence) (plasmid pBR322 DNA): 3′-ATTT-5′
- Form II DNA (%) (supercoil pBR322 DNA): quantitative

Compound: COc1cc2cc(C(=O)Nc3cc(N)ccc3CCCl)[nH]c2c(OC)c1OC [Compound 24, 4-(2-Chloroethyl)-3-(5,6,7-trimethoxyindole-2-carboxamido)aniline]
- Form II DNA (%) (supercoil pBR322 DNA; [7]): quantitative

Compound: COc1cc2cc(C(=O)Nc3cc(N)c4ccccc4c3CCCl)[nH]c2c(OC)c1OC [Compound 25, 4-(2-chloroethyl)-3-(5,6,7-trimethoxyindole-2-carboxamido)-1-naphthylamine]
- range of activity [4]: micromolar range
- activity against leukemia cells [4]: none of these compounds showed much activity
- activity against melanoma cells [4]: active
- activity against solid tumors cells [4]: strong activity
- cell kill [5]: cell kill observed
- composite score ([5]; IP+SC): 54
- IP score ([5]; intraperitoneal fibers): 46
- SC score ([5]; subcutaneous fibers): 8
- covalent DNA AT sequence selectivity (plasmid pBR322 DNA): preferentially at a five consecutive A(865)AAAA sequence
- Form II DNA (%) (supercoil pBR322 DNA; [7]): quantitative

Compound: COc1cc2cc(C(=O)Nc3cc(O)c4ccccc4c3CCCl)[nH]c2c(OC)c1OC [Compound 26, 4-(2-Chloroethyl)-3-(5,6,7-trimethoxyindole-2-carboxamido)-1-naphthol]
- range of activity [4]: micromolar range
- activity against leukemia cells [4]: none of these compounds showed much activity
- activity against melanoma cells [4]: active
- activity against solid tumors cells [4]: strong activity
- covalent DNA AT sequence selectivity (plasmid pBR322 DNA): preferentially at a five consecutive A(865)AAAA sequence
- Form I DNA (%) (supercoil pBR322 DNA; [7]): 0%
- Form II DNA (%) (supercoil pBR322 DNA; [7]): quantitative

Compound: COc1cc2cc(C(=O)N3CC(CCl)c4c3cc(O)c3ccccc43)[nH]c2c(OC)c1OC (centres unmarked) [Compound 28, seco-CBI-trimethoxyindole, reference compound]
- covalent DNA AT sequence selectivity (plasmid pBR322 DNA): preferentially at a five consecutive A(865)AAAA sequence

Compound: CCN(CC)c1ccc2cc(C(=O)Nc3ccc4[nH]c(C(=O)N5C[C@@H](CCl)c6c5cc(OC(=O)Nc5ccccc5)c5[nH]cc(C)c65)cc4c3)oc2c1 [carzelesin]
- ILS (L1210 leukemia): 150±8%
- survival (L1210 leukemia): 2/6

Compound: N-[(N-(4-Aminobutyl)-N-methylimidazole-4-(N-methylpyrrole-2-carboxamido)-2-carboxamido)]-N-[5-(4-(2-chloroethyl)phenol-3-yl)benzofuran-2-carboxamido)]glutarodiamide hydrochloride [Compound 19]
- IC50 (P815 mastocytoma cells): > 100 µM
- additional unique alkylation site (plasmid pBR322 DNA): 3′-(G)CA-5′
- alkylation of the 5′-AAAAA sequence (plasmid pBR322 DNA): did not alkylate
- alkylation selectivity (sequence) (plasmid pBR322 DNA): 3′-ATTT-5′
- Form II DNA (%) (supercoil pBR322 DNA): quantitative
- IC50 (L1210 leukemia cells): > 100 µM

Compound: N-[(N-(4-Aminobutyl)-N-methylpyrrole-4-(N-methylimidazole-2-carboxamido)-2-carboxamido)]-N-[5-(4-(2-chloroethyl)phenol-3-yl)benzofuran-2-carboxamido)]glutarodiamide hydrochloride [Compound 18]
- IC50 (P815 mastocytoma cells): > 100 µM
- additional unique alkylation site (plasmid pBR322 DNA): 3′-GCAACG-5′
- alkylation of the 5′-AAAAA sequence (plasmid pBR322 DNA): did not alkylate
- alkylation selectivity (sequence) (plasmid pBR322 DNA): 3′-ATTT-5′
- Form II DNA (%) (supercoil pBR322 DNA): quantitative
- IC50 (L1210 leukemia cells): > 100 µM
